This note sets out measurements from patent publication US11104674B2 (Hoffmann-La Roche Inc., priority 2016, dated 2021).

In this assay the test system is HBsAg. The assay is described as follows: HBsAg assay (chemiluminescence immunoassay of secreted HBsAg). It is filed as cell-based, HBV. The note with it: Hepatitis B virus, HepG2.2.15, HBsAg secretion, HepG2.2.15 cells, CLIA of culture supernatant. On the procedure:
HepG2.2.15 cells (Acs et al. Proc Natl Acad Sci USA, 84, (1987), 4641-4), a constitutively HBV-expressing cell line were cultured in DMEM+Glutamax-I medium (Invitrogen, Carlsbad, Calif., USA), supplemented with 10% fetal bovine serum (Invitrogen) and G418 (Invitrogen) at a final concentration of 200 mg/L and maintained in 5% CO2 at 37° C.
HepG2.2.15 cells were seeded in duplicate into white, 96-well plates at 1.5×10^4 cells/well. The cells were treated with a three-fold serial dilution series of the compounds in DMSO. The final DMSO concentration in all wells was 1% and DMSO was used as no drug control.
The HBsAg chemiluminescence immunoassay (CLIA) kit (Autobio Diagnostics Co., Zhengzhou, China, Catalog number: CL0310-2) was used to measure the levels of secreted HBV antigens semi-quantitatively. For the detection 50 μL/well culture supernatant was used and HBsAg was quantified using HBsAg chemiluminescence immunoassay (CLIA) kit (Autobio Diagnostics Co., Zhengzhou, China, Catalog number: CL0310-2), 50 μL of the supernatant was transferred to the CLIA assay plate and 50 μL of enzyme conjugate reagent was added into each well. The plates were sealed and gently agitated for 1 hour at room temperature. The supernatant-enzyme-mixture was discarded and wells were washed 6 times with 300 μL of PBS.
The residual liquid was removed by plating the CLIA plate right side down on absorbent tissue paper. 25 μL of substrates A and B were added to each well. Luminance was measured using a luminometer (Mithras LB 940 Multimode Microplate Reader) after 10 minutes incubation. Dose-response curves were generated and the IC50 value was extrapolated by using the E-WorkBook Suite (ID Business Solutions Ltd., Guildford, UK). The IC50 was defined as the compound concentration (or conditioned media log dilution) at which HBsAg secretion was reduced by 50% compared to the no drug control.
The compounds according to formula I were tested for their capacity to inhibit HBsAg as described herein.
By IC50 is commonly meant the concentration that inhibits the measured activity by half. Higher therefore signals a need for much substance. In the case of `CC1c2cnc(-c3ncccn3)nc2CCN1c1cc(N2CCCC2C(N)=O)cc(F)n1` (stereo not drawn) [Example 42, 1-[2-fluoro-6-(5-methyl-2-pyrimidin-2-yl-7,8-dihydro-5H-pyrido[4,3-d]pyrimidin-6-yl)-4-pyridyl]pyrrolidine-2-carboxamide], the IC50 turned out to be 319 nM.

`CC1c2cnc(-c3ncccn3)nc2CCN1c1cc(F)cc(N2CCCC2C(N)=O)n1` (stereo not drawn) [Example 43, 1-[4-fluoro-6-(5-methyl-2-pyrimidin-2-yl-7,8-dihydro-5H-pyrido[4,3-d]pyrimidin-6-yl)-2-pyridyl]pyrrolidine-2-carboxamide] displayed an IC50 of 134 nM. The compound `CC1c2cnc(-c3ncccn3)nc2CCN1c1cc(N2CCC(C(N)=O)C2)cc(F)n1` (stereo not drawn) [Example 44, 1-[2-fluoro-6-(5-methyl-2-pyrimidin-2-yl-7,8-dihydro-5H-pyrido[4,3-d]pyrimidin-6-yl)-4-pyridyl]pyrrolidine-3-carboxamide] yielded an IC50 of 54 nM. In turn, `CC1c2cnc(-c3ncccn3)nc2CCN1c1cc(F)cc(N2CCC(C(N)=O)C2)n1` (stereo not drawn) [Example 45, 1-[4-fluoro-6-(5-methyl-2-pyrimidin-2-yl-7,8-dihydro-5H-pyrido[4,3-d]pyrimidin-6-yl)-2-pyridyl]pyrrolidine-3-carboxamide] gave an IC50 of 18 nM. Consider `CC1c2cnc(-c3ncccn3)nc2CCN1c1cc(N2CCOC(C(N)=O)C2)cc(F)n1` (stereo not drawn) [Example 46, 4-[2-Fluoro-6-(5-methyl-2-pyrimidin-2-yl-7,8-dihydro-5H-pyrido[4,3-d]pyrimidin-6-yl)-4-pyridyl]morpholine-2-carboxamide], for which the IC50 was 36 nM. Compound `CC1c2cnc(-c3ncccn3)nc2CCN1c1cc(F)cc(N2CCOC(C(N)=O)C2)n1` (stereo not drawn) [Example 47, 4-[4-fluoro-6-(5-methyl-2-pyrimidin-2-yl-7,8-dihydro-5H-pyrido[4,3-d]pyrimidin-6-yl)-2-pyridyl]morpholine-2-carboxamide] had an IC50 of 33 nM. The value for `CC1c2cnc(-c3ncccn3)nc2CCN1c1cc(NC2CCOCC2)cc(F)n1` (stereo not drawn) [Example 48, 2-fluoro-6-(5-methyl-2-pyrimidin-2-yl-7,8-dihydro-5H-pyrido[4,3-d]pyrimidin-6-yl)-N-tetrahydropyran-4-yl-pyridin-4-amine] was 55 nM. For `CC1c2cnc(-c3ncccn3)nc2CCN1c1cc(F)cc(NC2CCOCC2)n1` (stereo not drawn) [Example 49, 4-fluoro-6-(5-methyl-2-pyrimidin-2-yl-7,8-dihydro-5H-pyrido[4,3-d]pyrimidin-6-yl)-N-tetrahydropyran-4-yl-pyridin-2-amine], the IC50 is 56 nM. The compound `CC1c2cnc(-c3ncccn3)nc2CCN1c1cc(N2CCNC(C(=O)O)C2)cc(F)n1` (stereo not drawn) [Example 50, 4-[2-Fluoro-6-(5-methyl-2-pyrimidin-2-yl-7,8-dihydro-5H-pyrido[4,3-d]pyrimidin-6-yl)-4-pyridyl]piperazine-2-carboxylic acid] came in with an IC50 of 1940 nM. `CC1c2cnc(-c3ncccn3)nc2CCN1c1cc(F)cc(N2CCC(C(=O)O)CC2)n1` (stereo not drawn) [Example 51, 1-[4-fluoro-6-(5-methyl-2-pyrimidin-2-yl-7,8-dihydro-5H-pyrido[4,3-d]pyrimidin-6-yl)-2-pyridyl]piperidine-4-carboxylic acid] showed an IC50 of 346 nM. This IC50 is about 5.6-fold lower than that of the compound before.

In the case of `CC1c2cnc(-c3ncccn3)nc2CCN1c1cc(N2CCC(C(=O)O)CC2)cc(F)n1` (stereo not drawn) [Example 52, 1-[2-fluoro-6-(5-methyl-2-pyrimidin-2-yl-7,8-dihydro-5H-pyrido[4,3-d]pyrimidin-6-yl)-4-pyridyl]piperidine-4-carboxylic acid], the half-inhibitory concentration (IC50) is 1040 nM. In turn, `CC1c2cnc(-c3ncccn3)nc2CCN1c1cc(F)cc(N2CC(C(=O)O)C2)n1` (stereo not drawn) [Example 53, 1-[4-fluoro-6-(5-methyl-2-pyrimidin-2-yl-7,8-dihydro-5H-pyrido[4,3-d]pyrimidin-6-yl)-2-pyridyl]azetidine-3-carboxylic acid] registered an IC50 of 4710 nM. The value for `CC1c2cnc(-c3ncccn3)nc2CCN1c1cc(N2CC(C(=O)O)C2)cc(F)n1` (stereo not drawn) [Example 54, 1-[2-fluoro-6-(5-methyl-2-pyrimidin-2-yl-7,8-dihydro-5H-pyrido[4,3-d]pyrimidin-6-yl)-4-pyridyl]azetidine-3-carboxylic acid] was 6340 nM; that for `CC1c2cnc(-c3ncccn3)nc2CCN1c1cc(F)cc(N2CCC(C(N)=O)CC2)n1` (stereo not drawn) [Example 55, 1-[4-fluoro-6-(5-methyl-2-pyrimidin-2-yl-7,8-dihydro-5H-pyrido[4,3-d]pyrimidin-6-yl)-2-pyridyl]piperidine-4-carboxamide] was 72 nM; that for `CC1c2cnc(-c3ncccn3)nc2CCN1c1cc(N2CCC(C(N)=O)CC2)cc(F)n1` (stereo not drawn) [Example 56, 1-[2-fluoro-6-(5-methyl-2-pyrimidin-2-yl-7,8-dihydro-5H-pyrido[4,3-d]pyrimidin-6-yl)-4-pyridyl]piperidine-4-carboxamide] was 37 nM. `CC1c2cnc(-c3ncccn3)nc2CCN1c1cc(F)cc(N2CCN(S(C)(=O)=O)CC2)n1` (stereo not drawn) [Example 57, 6-[4-fluoro-6-(4-methylsulfonylpiperazin-1-yl)-2-pyridyl]-5-methyl-2-pyrimidin-2-yl-7,8-dihydro-5H-pyrido[4,3-d]pyrimidine]: the IC50 was 28 nM. Turning to `CC1c2cnc(-c3ncccn3)nc2CCN1c1cc(N2CCN(S(C)(=O)=O)CC2)cc(F)n1` (stereo not drawn) [Example 58, 6-[6-fluoro-4-(4-methylsulfonylpiperazin-1-yl)-2-pyridyl]-5-methyl-2-pyrimidin-2-yl-7,8-dihydro-5H-pyrido[4,3-d]pyrimidine], the IC50 amounted to 15 nM. As for `CC1c2cnc(-c3ccccn3)nc2CCN1c1cc(F)cc(N2CCC(O)C2)n1` (stereo not drawn) [Example 59, 1-[4-fluoro-6-[5-methyl-2-(2-pyridyl)-7,8-dihydro-5H-pyrido[4,3-d]pyrimidin-6-yl]-2-pyridyl]pyrrolidin-3-ol], the IC50 amounted to 26 nM. For the compound `CC1c2cnc(-c3ccccn3)nc2CCN1c1cc(N2CCC(O)C2)cc(F)n1` (stereo not drawn) [Example 60, 1-[2-fluoro-6-[5-methyl-2-(2-pyridyl)-7,8-dihydro-5H-pyrido[4,3-d]pyrimidin-6-yl]-4-pyridyl]pyrrolidin-3-ol], half-maximal inhibition (IC50) was put at 23 nM. With `CC1c2cnc(-c3ccccn3)nc2CCN1c1cc(F)cc(N2CCC(C(N)=O)C2)n1` (stereo not drawn) [Example 61, 1-[4-fluoro-6-[5-methyl-2-(2-pyridyl)-7,8-dihydro-5H-pyrido[4,3-d]pyrimidin-6-yl]-2-pyridyl]pyrrolidine-3-carboxamide], half-maximal inhibition (IC50) was put at 22 nM. As for `CC1c2cnc(-c3ccccn3)nc2CCN1c1cc(N2CCC(C(N)=O)C2)cc(F)n1` (stereo not drawn) [Example 62, 1-[2-fluoro-6-[5-methyl-2-(2-pyridyl)-7,8-dihydro-5H-pyrido[4,3-d]pyrimidin-6-yl]-4-pyridyl]pyrrolidine-3-carboxamide], the IC50 is 35 nM. `CC1c2cnc(-c3ncccn3)nc2CCN1c1cc(F)cc(N2CC(C(=O)NS(C)(=O)=O)C2)n1` (stereo not drawn) [Example 63, 1-[4-fluoro-6-(5-methyl-2-pyrimidin-2-yl-7,8-dihydro-5H-pyrido[4,3-d]pyrimidin-6-yl)-2-pyridyl]-N-methylsulfonyl-azetidine-3-carboxamide] returned an IC50 of 5420 nM. Compared with the last compound, the IC50 is about 150-fold higher. The figure for `CC1c2cnc(-c3ncccn3)nc2CCN1c1cc(N2CC(C(=O)NS(C)(=O)=O)C2)cc(F)n1` (stereo not drawn) [Example 64, 1-[2-fluoro-6-(5-methyl-2-pyrimidin-2-yl-7,8-dihydro-5H-pyrido[4,3-d]pyrimidin-6-yl)-4-pyridyl]-N-methylsulfonyl-azetidine-3-carboxamide] is 2380 nM; for `CC1c2cnc(-c3ncccn3)nc2CCN1c1cc(F)cc(N2CCC(C(=O)NS(C)(=O)=O)CC2)n1` (stereo not drawn) [Example 65, 1-[4-fluoro-6-(5-methyl-2-pyrimidin-2-yl-7,8-dihydro-5H-pyrido[4,3-d]pyrimidin-6-yl)-2-pyridyl]-N-methylsulfonyl-piperidine-4-carboxamide] it is 4440 nM; for `CC1c2cnc(-c3ncccn3)nc2CCN1c1cc(N2CCC(C(=O)NS(C)(=O)=O)CC2)cc(F)n1` (stereo not drawn) [Example 66, 1-[2-fluoro-6-(5-methyl-2-pyrimidin-2-yl-7,8-dihydro-5H-pyrido[4,3-d]pyrimidin-6-yl)-4-pyridyl]-N-methylsulfonyl-piperidine-4-carboxamide] it is 1940 nM.

`CC1c2cnc(-c3ccccn3)nc2CCN1c1cc(F)cc(N2CCC(C(=O)O)C2)n1` (stereo not drawn) [Example 67, 1-[4-fluoro-6-[5-methyl-2-(2-pyridyl)-7,8-dihydro-5H-pyrido[4,3-d]pyrimidin-6-yl]-2-pyridyl]pyrrolidine-3-carboxylic acid]: the IC50 came to 532 nM. For the compound `CC1c2cnc(-c3ccccn3)nc2CCN1c1cc(N2CCC(C(=O)O)C2)cc(F)n1` (stereo not drawn) [Example 68, 1-[2-fluoro-6-[5-methyl-2-(2-pyridyl)-7,8-dihydro-5H-pyrido[4,3-d]pyrimidin-6-yl]-4-pyridyl]pyrrolidine-3-carboxylic acid], the IC50 is 215 nM.
